Like-named read-outs stand apart in the source and are kept apart here.
Tests used:
Format in all cases: biochemical
BTK-WT = target: T1, BTK-WT (Homo sapiens, UniProt Q06187); experiment: Btk in vitro inhibitory activity (one of Method A TR-FRET, Method B electrophoretic mobility shift, Method C radiometric filter binding); settings: read-out: IC50 BTK-WT
T1 construct: purified from insect cells as a full-length construct containing an N-terminal 6X-His tag; His6 (N); made in house; host or cells: insect cells (baculovirus Sf21 in Method B)

JAK3 = target: T2, JAK3 (Homo sapiens, UniProt P52333); experiment: Inhibition of a panel of kinases, in vitro HotSpot kinase assay: JAK3; settings: read-out: IC50 JAK3
T2 sequence (P52333 1-1124): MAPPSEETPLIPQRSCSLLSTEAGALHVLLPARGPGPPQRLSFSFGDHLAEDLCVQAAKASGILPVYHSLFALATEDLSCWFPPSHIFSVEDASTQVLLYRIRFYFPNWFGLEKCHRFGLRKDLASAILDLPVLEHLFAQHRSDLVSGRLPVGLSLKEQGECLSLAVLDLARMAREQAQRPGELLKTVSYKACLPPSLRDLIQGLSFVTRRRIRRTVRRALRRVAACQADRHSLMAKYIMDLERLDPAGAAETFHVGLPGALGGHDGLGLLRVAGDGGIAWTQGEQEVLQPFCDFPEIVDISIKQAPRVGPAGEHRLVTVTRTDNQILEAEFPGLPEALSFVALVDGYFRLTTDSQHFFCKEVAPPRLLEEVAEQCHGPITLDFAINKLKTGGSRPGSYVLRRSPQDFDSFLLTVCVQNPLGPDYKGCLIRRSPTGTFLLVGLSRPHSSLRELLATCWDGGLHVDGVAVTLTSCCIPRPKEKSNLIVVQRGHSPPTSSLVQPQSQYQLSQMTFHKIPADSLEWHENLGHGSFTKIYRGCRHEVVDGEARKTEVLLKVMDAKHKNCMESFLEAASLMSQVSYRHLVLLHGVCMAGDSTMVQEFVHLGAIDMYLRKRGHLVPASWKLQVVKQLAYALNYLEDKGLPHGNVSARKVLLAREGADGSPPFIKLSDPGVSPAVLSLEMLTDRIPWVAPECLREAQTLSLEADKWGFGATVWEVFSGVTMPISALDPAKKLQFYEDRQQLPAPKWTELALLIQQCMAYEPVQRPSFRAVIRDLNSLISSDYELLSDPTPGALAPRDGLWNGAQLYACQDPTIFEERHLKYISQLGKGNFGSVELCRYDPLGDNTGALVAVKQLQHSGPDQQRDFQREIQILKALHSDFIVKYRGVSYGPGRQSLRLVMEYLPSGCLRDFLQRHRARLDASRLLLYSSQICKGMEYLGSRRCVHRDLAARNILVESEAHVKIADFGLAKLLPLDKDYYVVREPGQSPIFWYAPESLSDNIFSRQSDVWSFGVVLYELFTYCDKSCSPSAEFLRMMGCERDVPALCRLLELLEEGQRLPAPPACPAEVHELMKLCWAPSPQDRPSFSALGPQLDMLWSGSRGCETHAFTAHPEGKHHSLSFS

LCK = LCK (Homo sapiens, UniProt P06239); experiment: Inhibition of a panel of kinases, in vitro HotSpot kinase assay: LCK; settings: read-out: IC50 LCK
EGFR = EGFR (Homo sapiens, UniProt P00533); experiment: Inhibition of a panel of kinases, in vitro HotSpot kinase assay: EGFR
Method: (§1) The degree of inhibition of a panel of kinases is determined using the in vitro HotSpot kinase assay (purified enzymes, ^33P-ATP, an appropriate substrate and 1 μM ATP).

SRC = SRC (Homo sapiens, UniProt P12931); experiment: Inhibition of a panel of kinases, in vitro HotSpot kinase assay: SRC
Method: as §1

[1] = Table 13, A compounds, 1 μM ATP

Chain of LCK (P06239 whole entry): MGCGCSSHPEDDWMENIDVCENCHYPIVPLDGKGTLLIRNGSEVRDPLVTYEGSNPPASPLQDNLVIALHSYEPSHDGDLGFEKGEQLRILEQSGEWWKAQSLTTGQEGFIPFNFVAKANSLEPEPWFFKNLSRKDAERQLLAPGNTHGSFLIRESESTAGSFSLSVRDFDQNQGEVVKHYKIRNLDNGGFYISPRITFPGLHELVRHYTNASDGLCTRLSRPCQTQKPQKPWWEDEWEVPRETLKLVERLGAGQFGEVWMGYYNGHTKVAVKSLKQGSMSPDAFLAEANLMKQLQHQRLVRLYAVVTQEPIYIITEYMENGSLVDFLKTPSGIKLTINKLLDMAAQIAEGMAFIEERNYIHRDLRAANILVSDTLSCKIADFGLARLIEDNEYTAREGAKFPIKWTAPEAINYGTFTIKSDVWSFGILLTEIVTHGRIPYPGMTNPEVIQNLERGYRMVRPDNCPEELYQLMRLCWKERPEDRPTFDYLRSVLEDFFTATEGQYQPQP
Chain of EGFR (P00533 25-1210): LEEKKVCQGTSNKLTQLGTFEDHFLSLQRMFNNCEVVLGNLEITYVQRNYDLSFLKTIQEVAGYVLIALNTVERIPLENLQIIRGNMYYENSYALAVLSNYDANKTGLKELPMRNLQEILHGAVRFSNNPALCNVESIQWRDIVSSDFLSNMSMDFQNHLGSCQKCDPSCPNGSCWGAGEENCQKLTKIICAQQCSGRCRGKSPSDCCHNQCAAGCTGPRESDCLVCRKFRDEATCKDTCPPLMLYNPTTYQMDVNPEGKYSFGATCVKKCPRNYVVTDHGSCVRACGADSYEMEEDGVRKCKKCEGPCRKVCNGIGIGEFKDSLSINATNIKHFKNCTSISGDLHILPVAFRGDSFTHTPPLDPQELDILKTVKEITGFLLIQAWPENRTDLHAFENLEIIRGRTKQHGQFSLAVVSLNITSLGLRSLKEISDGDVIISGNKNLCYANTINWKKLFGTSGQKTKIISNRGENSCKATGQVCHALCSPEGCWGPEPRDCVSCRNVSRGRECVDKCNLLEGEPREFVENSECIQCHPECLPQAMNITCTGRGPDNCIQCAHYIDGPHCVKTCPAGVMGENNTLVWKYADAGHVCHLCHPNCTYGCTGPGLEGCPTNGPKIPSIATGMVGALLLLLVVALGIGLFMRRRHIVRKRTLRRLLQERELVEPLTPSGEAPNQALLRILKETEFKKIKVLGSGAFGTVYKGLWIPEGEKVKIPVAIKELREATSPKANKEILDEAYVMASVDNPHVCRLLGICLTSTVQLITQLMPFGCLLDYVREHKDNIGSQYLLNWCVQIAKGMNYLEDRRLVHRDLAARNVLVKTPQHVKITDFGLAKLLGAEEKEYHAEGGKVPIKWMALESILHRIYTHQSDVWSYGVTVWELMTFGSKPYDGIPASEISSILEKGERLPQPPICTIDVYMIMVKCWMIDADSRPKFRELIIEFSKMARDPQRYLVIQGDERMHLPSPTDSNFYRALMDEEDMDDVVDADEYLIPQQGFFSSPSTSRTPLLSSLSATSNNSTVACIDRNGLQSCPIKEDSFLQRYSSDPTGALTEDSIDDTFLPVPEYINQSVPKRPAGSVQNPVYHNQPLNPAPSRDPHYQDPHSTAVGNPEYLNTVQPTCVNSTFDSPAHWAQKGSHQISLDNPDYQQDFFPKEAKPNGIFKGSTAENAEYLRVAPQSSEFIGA
T1 sequence (Q06187 whole entry): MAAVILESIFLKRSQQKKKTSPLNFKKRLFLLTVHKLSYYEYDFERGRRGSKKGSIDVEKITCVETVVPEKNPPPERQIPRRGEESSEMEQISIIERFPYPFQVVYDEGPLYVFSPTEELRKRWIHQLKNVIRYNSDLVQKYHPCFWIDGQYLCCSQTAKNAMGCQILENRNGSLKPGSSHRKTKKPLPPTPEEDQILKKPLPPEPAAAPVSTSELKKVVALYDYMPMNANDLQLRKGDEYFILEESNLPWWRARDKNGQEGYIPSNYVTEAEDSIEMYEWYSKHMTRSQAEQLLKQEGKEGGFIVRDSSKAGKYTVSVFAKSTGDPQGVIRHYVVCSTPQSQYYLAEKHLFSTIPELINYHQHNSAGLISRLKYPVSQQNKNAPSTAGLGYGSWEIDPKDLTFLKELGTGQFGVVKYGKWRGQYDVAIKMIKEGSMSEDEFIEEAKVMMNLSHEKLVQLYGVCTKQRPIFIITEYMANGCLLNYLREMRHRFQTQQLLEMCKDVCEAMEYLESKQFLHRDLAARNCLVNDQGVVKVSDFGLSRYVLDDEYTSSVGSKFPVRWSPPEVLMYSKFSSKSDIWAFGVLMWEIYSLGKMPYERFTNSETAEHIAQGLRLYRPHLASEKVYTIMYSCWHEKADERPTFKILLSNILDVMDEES
Chain of SRC (P12931 whole entry): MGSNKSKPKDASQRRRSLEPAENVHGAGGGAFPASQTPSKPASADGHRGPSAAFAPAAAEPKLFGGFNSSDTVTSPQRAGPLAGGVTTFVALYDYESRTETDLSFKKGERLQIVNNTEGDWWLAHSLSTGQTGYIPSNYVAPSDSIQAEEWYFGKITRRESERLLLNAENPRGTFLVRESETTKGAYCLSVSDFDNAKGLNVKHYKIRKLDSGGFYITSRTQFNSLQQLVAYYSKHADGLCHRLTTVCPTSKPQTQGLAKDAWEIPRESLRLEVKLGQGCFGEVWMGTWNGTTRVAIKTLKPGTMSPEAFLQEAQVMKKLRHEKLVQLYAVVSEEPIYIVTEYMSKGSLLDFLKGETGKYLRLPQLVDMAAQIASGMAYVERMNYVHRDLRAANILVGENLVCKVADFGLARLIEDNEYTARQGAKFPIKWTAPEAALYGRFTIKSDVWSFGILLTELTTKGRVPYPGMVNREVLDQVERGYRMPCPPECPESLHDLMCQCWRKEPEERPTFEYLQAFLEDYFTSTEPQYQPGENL

SMILES	IC50 (BTK-WT; Table 13, A compounds)	IC50 (JAK3; [1])	IC50 (LCK; [1])	IC50 (EGFR; [1])	IC50 (SRC; [1])	IC50 (BTK-WT; E compounds, Table 17)	IC50 (JAK3; E compounds, Table 17)	IC50 (LCK; E compounds, Table 17)	IC50 (EGFR; E compounds, Table 17)	IC50 (SRC; E compounds, Table 17)
CN(C)C(=O)N[C@@H]1CCCN(c2cnc(C(N)=O)c(Nc3ccc(C4(C)CCN(C5CCCC5)CC4)cc3)n2)[C@@H]1CO [Example A-101, 3-{[4-(1-cyclopentyl-4-methylpiperidin-4-yl)phenyl]amino}-5-[(2S,3R)-3-[(dimethylcarbamoyl)amino]-2-(hydroxymethyl)piperidin-1-yl]pyrazine-2-carboxamide]	≤ 10 nM	1000 to 10000 nM	100 to 1000 nM	100 to 1000 nM	100 to 1000 nM					
C[C@@H]1[C@H](NC(=O)c2ccc(C3CC3)cc2F)CCCN1c1cnc(C(N)=O)c(Nc2ccc(CN3CCN(C)CC3)cc2)n1 [Example A-106, 5-[(2R,3R)-3-(4-cyclopropyl-2-fluorobenzamido)-2-methylpiperidin-1-yl]-3-({4-[(4-methylpiperazin-1-yl)meth-yl]phenyl}amino)pyrazine-2-carboxamide]	≤ 10 nM	100 to 1000 nM	10 to 100 nM	100 to 1000 nM	100 to 1000 nM					
Cc1cc(Nc2nc(N3CCC[C@@H](n4ccc5cc(C6CC6)ccc5c4=O)C3)cnc2C(N)=O)sn1 [Example A-107, 5-[(3R)-3-(6-cyclopropyl-1-oxo-1,2-dihydroisoquinolin-2-yl)piperidin-1-yl]-3-[(3-methyl-1,2-thiazol-5-yl)amino]pyrazine-2-carboxamide]	≤ 10 nM	> 10000 nM	> 10000 nM	> 10000 nM	> 10000 nM					
C[C@@H]1[C@H](NC(=O)c2ccc(C3CC3)cc2F)CCCN1c1cnc(C(N)=O)c(Nc2nc3c(s2)CN(C)CC3)n1 [Example A-108, 5-[(2R,3R)-3-(4-cyclopropyl-2-fluorobenzamido)-2-methylpiperidin-1-yl]-3-({5-methyl-4H,5H,6H,7H-[1,3]thiazolo[5,4-c]pyridin-2-yl}amino)pyrazine-2-carboxamide]	100 to 1000 nM	> 10000 nM	> 10000 nM	> 10000 nM	> 10000 nM					
C[C@@H]1[C@H](NC(=O)c2ccc(C3CC3)cc2F)CCCN1c1cnc(C(N)=O)c(Nc2cnn(C)c2)n1 [Example A-110, 5-[(2R,3R)-3-(4-cyclopropyl-2-fluorobenzamido)-2-methylpiperidin-1-yl]-3-[(1-methyl-1H-pyrazol-4-yl)amino]pyrazine-2-carboxamide]	≤ 10 nM	1000 to 10000 nM	1000 to 10000 nM	1000 to 10000 nM	100 to 1000 nM					
CN1CCN(Cc2ccc(Nc3nc(N4CCC[C@@H](n5ccc6cc(C7CC7)ccc6c5=O)C4)cnc3C(N)=O)cc2)CC1 [Example A-111, 5-[(3R)-3-(6-cyclopropyl-1-oxo-1,2-dihydroisoquinolin-2-yl)piperidin-1-yl]-3-({4-[(4-methylpiperazin-1-yl)meth-yl]phenyl}amino)pyrazine-2-carboxamide]	≤ 10 nM	100 to 1000 nM	100 to 1000 nM	1000 to 10000 nM	100 to 1000 nM					
CN1CCN(C(=O)c2ccc(Nc3nc(N4CCC[C@@H](n5ccc6cc(C7CC7)ccc6c5=O)C4)cnc3C(N)=O)cc2)CC1 [Example A-115, 5-[(3R)-3-(6-cyclo-propyl-1-oxo-1,2-dihydroisoquinolin-2-yl)piperidin-1-yl]-3-{[4-(4-methylpiperazine-1-carbonyl)phenyl]amino}pyr-azine-2-carboxamide]	≤ 10 nM	100 to 1000 nM	100 to 1000 nM	100 to 1000 nM	100 to 1000 nM					
C[C@@H]1[C@H](NC(=O)c2ccc(C3CC3)cc2F)CCCN1c1cnc(C(N)=O)c(Nc2ccc(C3(C)CCN(C4CCCC4)CC3)cc2)n1 [Example A-121, 3-{[4-(1-cyclopentyl-4-methylpiperidin-4-yl)phenyl]amino}-5-[(2R,3R)-3-(4-cyclopropyl-2-fluorobenzamido)-2-methylpiperidin-1-yl]pyrazine-2-carboxamide]	≤ 10 nM	100 to 1000 nM	< 10 nM	10 to 100 nM	≤ 10 nM					
C[C@@H]1[C@H](NC(=O)c2ccc(C3CC3)cc2F)CCCN1c1cnc(C(N)=O)c(Nc2ccc(C(=O)N3CCN(C)CC3)cc2)n1 [Example A-122, 5-[(2R,3R)-3-(4-cyclopropyl-2-fluorobenzamido)-2-methylpiperidin-1-yl]-3-{[4-(4-methylpiperazine-1-carbonyl)phenyl]amino}pyr-azine-2-carboxamide]	≤ 10 nM	100 to 1000 nM	100 to 1000 nM	100 to 1000 nM	100 to 1000 nM					
C[C@@H]1[C@H](NC(=O)c2ccc(C3CC3)cc2F)CCCN1c1cnc(C(N)=O)c(Nc2ccc(N3CCN(C4CCCC4)CC3)cc2)n1 [Example A-125, 3-{[4-(4-cyclopentylpiperazin-1-yl)phenyl]amino}-5-[(2R,3R)-3-(4-cyclopropyl-2-fluorobenzamido)-2-methylpiperidin-1-yl]pyrazine-2-carboxamide]	≤ 10 nM	100 to 1000 nM	100 to 1000 nM	100 to 1000 nM	10 to 100 nM					
C=CC(=O)N[C@@H]1CCCN(c2nnc(C(N)=O)c(Nc3ccc(C4(C)CCN(C5CC5)CC4)cc3)n2)[C@@H]1C [Example E-2, 3-((2R,3R)-3-acrylamido-2-methylpiperidin-1-yl)-5-((4-(1-cyclopropyl-4-methylpiperidin-4-yl)phenyl)amino)-1,2,4-triazine-6-carboxamide]						≤ 10 nM	10 to 100 nM	100 to 1000 nM		
C=CC(=O)N[C@@H]1CCCN(c2nnc(C(N)=O)c(Nc3ccc(Cl)cc3)n2)[C@@H]1C [Example E-5, 3-((2R,3R)-3-acrylamido-2-methylpiperidin-1-yl)-5-((4-chlorophenyl)amino)-1,2,4-triazine-6-carboxamide]						≤ 10 nM	< 10 nM	< 10 nM		
C=CC(=O)N1CCC[C@@H](Nc2nnc(C(N)=O)c(Nc3ccc(Cl)cc3)n2)[C@H]1C [Example E-7, 3-(((2R,3R)-1-acryloyl-2-methylpiperidin-3-yl)amino)-5-((4-chlorophenyl)amino)-1,2,4-triazine-6-carboxamide]						≤ 10 nM	< 10 nM	< 10 nM		
C=CC(=O)N1CCC[C@@H](Nc2nnc(C(N)=O)c(Nc3ccc(C(C)(C)C)cc3)n2)C1 [Example E-24, (R)-3-(1-acryloylpiperidin-3-ylamino)-5-(4-tert-butylphenylamino)-1,2,4-triazine-6-carboxamide]						≤ 10 nM	< 10 nM	100 to 1000 nM	≤ 10 nM	
C=CC(=O)N1CCC[C@@H](N(C)c2cnc(C(N)=O)c(Nc3ccc(C(C)C)cc3)n2)C1 [Example E-102, (R)-5-((1-acryloylpiperidin-3-yl)(methyl)amino)-3-(4-isopropylphenylamino) pyrazine-2-carboxamide]						≤ 10 nM	10 to 100 nM	1000 to 10000 nM		100 to 1000 nM
C=CC(=O)N1CCC[C@@H](Nc2nnc(C(N)=O)c(Nc3ccc(C4(C)CCN(C5CC5)CC4)cc3)n2)[C@H]1C [Example E-127, 3-(((2R,3R)-1-acryloyl-2-methylpiperidin-3-yl)amino)-5-((4-(1-cyclopropyl-4-methylpiperidin-4-yl)phenyl)amino)-1,2,4-triazine-6-carboxamide]						≤ 10 nM	< 10 nM	< 10 nM		≤ 10 nM
CC(C)c1ccc(Nc2nc(N3CCC[C@@H](N4CCC[C@@H](Nc5cc(Cl)cc(C(F)(F)F)c5)C4=O)C3)nnc2C(N)=O)cc1 [Example E-128, 3-((3R,3′R)-3-((3-chloro-5-(trifluoromethyl)phenyl)amino)-2-oxo-[1,3′-bipiperidin]-1′-yl)-5-((4-isopropylphenyl)amino)-1,2,4-triazine-6-carboxamide]						100 to 1000 nM	1000 to 10000 nM	10 to 100 nM		10 to 100 nM

From patent US20210070748A1, “INHIBITORS OF BRUTONS TYROSINE KINASE” (Pharmacyclics LLC, priority 2015, published 2021)
